Like-named read-outs stand apart in the source and are kept apart here.
Experiments:
[1] = tested on: HUT78 (non-monocyte cell line) cells; experiment: Intact cell accumulation assay, HUT78 cells; format: in vitro ADME; details: 6 μmol/L compound
Method: (§1) Cells (4×10^4/mL) were incubated at 37° C. in culture medium containing 6 μmol/L compound in a 5% (v/v) CO2-humidified atmosphere. Incubations were terminated after 6 h by centrifugation of 25 mL aliquots of the cell suspension at 1500 rpm for 5 min at 4° C. 0.2 mL samples of the culture media supernatants were added to four volumes of acetonitrile. After decanting the supernatant, the residual cell pellet (10^6 cells) was extracted into 1 mL of acetonitrile. Samples were then analyzed for the ester and acid metabolite at room temperature by LC/MS/MS (Sciex API3000). Chromatography was based on a MeCN (75×21 mm) column with a 5% to 95% (v/v) acetonitrile/water, 0.1% (v/v) formic acid mobile phase. For the zero time samples, the cell suspension was chilled and centrifuged as soon as the ester had been added and then extracted into acetonitrile as described. Levels in cells are expressed as ng/mL.

[2] = tested on: TNF-α production in THP-1 cells; experiment: LPS-stimulation of THP-1 cells, TNF-α by ELISA; format: cell-based; details: Homo sapiens
Method: THP-1 cells were plated in 100 μl at a density of 4×10^4 cells/well in V-bottomed 96 well tissue culture treated plates and incubated at 37° C. in 5% CO2 for 16 hours. 2 hours after the addition of the inhibitor in 100 μl of tissue culture media, the cells were stimulated with LPS (E coli strain 005:B5, Sigma) at a final concentration of 1 μg/ml and incubated at 37° C. in 5% CO2 for 6 hrs. TNF-α levels were measured from cell-free supernatants by sandwich ELISA (R&D Systems #QTA00B).

[3] = tested on: TNF-α production in human whole blood; experiment: LPS-stimulation of human whole blood, TNF-α by ELISA; format: cell-based
Method: Whole blood was taken by venous puncture using heparinised vacutainers (Becton Dickinson) and diluted in an equal volume of RPMI1640 tissue culture media (Sigma). 100 μl was plated in V-bottomed 96 well tissue culture treated plates. 2 hours after the addition of the inhibitor in 100 μlof RPMI1640 media, the blood was stimulated with LPS (E coli strain 005:B5, Sigma) at a final concentration of 100 ng/ml and incubated at 37° C. in 5% CO2 for 6 hours. TNF-α levels were measured from cell-free supernatants by sandwich ELISA (R&D Systems #QTA00B).

[4] = target: T1, IKKβ (Homo sapiens, UniProt O14920); experiment: IKKβ enzyme assay (Z'-LYTE, Invitrogen); format: biochemical
T1 construct: purchased Invitrogen (Paisley, UK)
T1 sequence (O14920 1-756): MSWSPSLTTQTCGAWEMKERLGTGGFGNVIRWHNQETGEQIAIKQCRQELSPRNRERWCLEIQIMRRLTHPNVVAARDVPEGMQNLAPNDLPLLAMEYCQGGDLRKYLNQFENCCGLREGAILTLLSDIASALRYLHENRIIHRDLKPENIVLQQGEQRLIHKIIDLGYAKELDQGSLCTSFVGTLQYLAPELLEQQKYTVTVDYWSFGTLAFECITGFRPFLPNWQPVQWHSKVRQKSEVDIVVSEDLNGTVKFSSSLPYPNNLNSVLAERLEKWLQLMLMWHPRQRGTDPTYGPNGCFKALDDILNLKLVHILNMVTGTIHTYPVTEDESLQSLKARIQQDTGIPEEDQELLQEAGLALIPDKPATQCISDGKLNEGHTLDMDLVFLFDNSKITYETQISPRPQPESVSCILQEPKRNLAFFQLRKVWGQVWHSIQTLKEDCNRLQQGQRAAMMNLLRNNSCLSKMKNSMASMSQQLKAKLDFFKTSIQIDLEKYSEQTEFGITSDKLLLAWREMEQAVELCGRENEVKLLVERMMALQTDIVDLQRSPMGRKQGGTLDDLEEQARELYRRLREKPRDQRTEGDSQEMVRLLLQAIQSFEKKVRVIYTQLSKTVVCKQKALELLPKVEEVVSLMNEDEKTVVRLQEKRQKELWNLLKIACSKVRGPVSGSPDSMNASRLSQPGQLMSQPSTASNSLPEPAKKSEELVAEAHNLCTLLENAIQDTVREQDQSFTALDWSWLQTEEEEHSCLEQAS
Method: The ability of compounds to inhibit IKKβ kinase activity was measured in an assay performed by Invitrogen (Paisley, UK). The Z′-LYTE™ biochemical assay employs a fluorescence-based, coupled-enzyme format and is based on the differential sensitivity of phosphorylated and non-phosphorylated peptides to proteolytic cleavage. The peptide substrate is labelled with two fluorophores—one at each end—that make up a FRET pair. In the primary reaction, the kinase transfers the gamma-phosphate of ATP to a single serine or threonine residue in a synthetic FRET-peptide. In the secondary reaction, a site-specific protease recognizes and cleaves non-phosphorylated FRET-peptides. Phosphorylation of FRET-peptides suppresses cleavage by the Development Reagent. Cleavage disrupts FRET between the donor (i.e., coumarin) and acceptor (i.e. fluorescein) fluorophores on the FRET-peptide, whereas uncleaved, phosphorylated FRET-peptides maintain FRET. A […] method, which calculates the ratio (the Emission Ratio) of donor emission to acceptor emission after excitation of the donor fluorophore at 400 nm, is used to quantitate reaction progress.
The final 10 μL Kinase Reaction consists of 0.9-8.0 ng IκBKB (IKKβ), 2 μM Ser/Thr 05 Peptide and ATP in 50 mM HEPES pH 7.5, 0.01% BRIJ-35, 10 mM MgCl2, 1 mM EGTA. The assay is performed at an ATP concentration at, or close to the Km. After the 60 minute Kinase Reaction incubation at room temperature, 5 μL of a 1:128 dilution of Development Reagent is added. The assay plate is incubated for a further 60 minutes at room temperature and read on a fluorescence plate reader.
Duplicate data points are generated from a 1/3 log dilution series of a stock solution of test compound in DMSO. Nine dilutions steps are made from a top concentration of 10 μM, and a ‘no compound’ blank is included. Data is collected and analysed using XLfit software from IDBS. The dose response curve is curve fitted to model number 205 (sigmoidal dose-response model). From the curve generated, the concentration giving 50% inhibition is determined and reported.

[5] = tested on: U937 (monocyte cell line) cells; experiment: Intact cell accumulation assay, U937 cells; format: in vitro ADME; details: 6 μmol/L compound
Method: as §1

[6] = THP-1, read-out: Inhibition of TNF-α production in THP-1 cells (IC50)
[7] = LPS-stimulated THP-1 cells, TNF-α, read-out: IC50 (nM) THP-1
[8] = LPS-stimulated human whole blood, TNF-α, read-out: IC50 (nM) Human Whole Blood
[9] = compound as drawn (Ester for the Example 1 row), read-out: Inhibition of IKKβ (IC50 nM)
[10] = read-out: IC50 (nM) IKKβ Enzyme

## CC(C)C[C@H](NCc1ccc(Cc2cc(C(N)=O)c(NC(N)=O)s2)cc1)C(=O)OC1CCCC1 [Example 1, Cyclopentyl N-(4-{[4-carbamoyl-5-(carbamoylamino)-2-thienyl]methyl}benzyl)-L-leucinate]
[1]; 0 hrs incubation
  Concentration in HUT78 cell line: 466 ng/10^6 cells
[1]; 6 hrs incubation
  Concentration in HUT78 cell line: 465 ng/10^6 cells
[2]; [6]
  IC50: 1940 nM
[2]; [7]
  IC50: 500 to 5000 nM
[3]
  Ratio of whole blood IC50 to enzyme IC50: 0.05
[3]; Homo sapiens, read-out: Inhibition of TNF-α production in human whole blood (IC50)
  IC50: 497 nM
[3]; [8]
  IC50: < 500 nM
[4]; Acid: the acid of the drawn ester (Example 1), read-out: Inhibition of IKKβ (IC50 nM), Acid
  IC50: 369 nM
[4]; [9]
  IC50: 10000 nM
[4]; [10]
  IC50: > 5000 nM
[5]; 0 hrs incubation
  Concentration in U937 cell line: 420 ng/10^6 cells
[5]; 6 hrs incubation
  Concentration in U937 cell line: 217 ng/10^6 cells

## CC(C)C[C@H](NCc1ccc(Cc2cc(C(N)=O)c(NC(N)=O)s2)cc1)C(=O)OC(C)(C)C [Example 2, tert-Butyl N-(4-{[4-carbamoyl-5-(carbamoylamino)-2-thienyl]methyl}benzyl)-L-leucinate]
[2]; [7]
  IC50: > 5000 nM
[3]; [8]
  IC50: > 5000 nM
[4]; [10]
  IC50: 500 to 5000 nM

## CC(C)C[C@H](NCc1ccc(CCc2cc(C(N)=O)c(NC(N)=O)s2)cc1)C(=O)OC1CCCC1 [Example 3, Cyclopentyl N-(4-{2-[4-carbamoyl-5-(carbamoylamino)-2-thienyl]ethyl}benzyl)-L-leucinate]
[2]; [7]
  IC50: > 5000 nM
[3]; [8]
  IC50: 500 to 5000 nM
[4]; [10]
  IC50: > 5000 nM

## CC(C)C[C@H](NCc1ccc(C#Cc2cc(C(N)=O)c(NC(N)=O)s2)cc1)C(=O)OC1CCCC1 [Example 4, Cyclopentyl N-(4-{[4-carbamoyl-5-(carbamoylamino)-2-thienyl]ethynyl}benzyl)-L-leucinate]
[2]; [7]
  IC50: 500 to 5000 nM
[3]; [8]
  IC50: 500 to 5000 nM
[4]; [10]
  IC50: > 5000 nM

## CC(C)C[C@H](NCc1ccc(Cc2cc(C(N)=O)c(NC(N)=O)s2)cc1)C(=O)O [Example 5, N-(4-{[4-Carbamoyl-5-(carbamoylamino)-2-thienyl]methyl}benzyl)-L-leucine]
[1]; 0 hrs incubation
  Concentration in HUT78 cell line: 0 ng/10^6 cells
[4]; [10]
  IC50: < 500 nM
[5]; 0 hrs incubation
  Concentration in U937 cell line: 68 ng/10^6 cells
[5]; 6 hrs incubation
  Concentration in U937 cell line: 286 ng/10^6 cells

## CC(C)C[C@H](NCc1ccc(CCc2cc(C(N)=O)c(NC(N)=O)s2)cc1)C(=O)O [Example 6, N-(4-{2-[4-Carbamoyl-5-(carbamoylamino)-2-thienyl]ethyl}benzyl)-L-leucine]
[4]; [10]
  IC50: 500 to 5000 nM

## NC(=O)Nc1sc(Cc2ccccc2)cc1C(N)=O [reference compound]
[2]; [6]
  IC50: 2710 nM
[3]
  Ratio of whole blood IC50 to enzyme IC50: >20
[3]; Homo sapiens, @10 μM, read-out: Inhibition of TNF-α production in human whole blood, % at single concentration
  inhibition at 10 µM: 28%
[4]; [9]
  IC50: 486 nM
